“And” between values parts separate entries of the source, which are not always exact repeats. Equal entries are not always repeated.
Assay: molar heat capacity at constant pressure
Details: 101.33 kPa, Vacuum adiabatic calorimetry

N#CCCNc1ccccc1 [3-anilinopropanenitrile]
Details	molar heat capacity at constant pressure
83 K, Crystal 2	52.6 J/K/mol
83.11 K, Crystal 2	52.8 J/K/mol
85.94 K, Crystal 2	53.3 J/K/mol
88 K, Crystal 2	53.8 J/K/mol
88.94 K, Crystal 2	54.1 J/K/mol
91.87 K, Crystal 2	55.3 J/K/mol
93 K, Crystal 2	55 J/K/mol
94.73 K, Crystal 2	54.7 J/K/mol
97.54 K, Crystal 2	55.3 J/K/mol
98 K, Crystal 2	56 J/K/mol
100.3 K, Crystal 2	55.4 J/K/mol
103 K, Crystal 2	57 J/K/mol
103.01 K, Crystal 2	56 J/K/mol
105.67 K, Crystal 2	57.9 J/K/mol
108 K, Crystal 2	57.6 J/K/mol
108.29 K, Crystal 2	58.1 J/K/mol
110.86 K, Crystal 2	58.6 J/K/mol
113 K, Crystal 2	58.4 J/K/mol
113.39 K, Crystal 2	59.7 J/K/mol
115.91 K, Crystal 2	59.1 J/K/mol
118 K, Crystal 2	59.1 J/K/mol
118.39 K, Crystal 2	59.9 J/K/mol
120.86 K, Crystal 2	59.7 J/K/mol
123 K, Crystal 2	60.1 J/K/mol
123.29 K, Crystal 2	60.2 J/K/mol
125.69 K, Crystal 2	61.3 J/K/mol
128 K, Crystal 2	61.3 J/K/mol
128.08 K, Crystal 2	61.2 J/K/mol
130.44 K, Crystal 2	61.4 J/K/mol
132.78 K, Crystal 2	62 J/K/mol
133 K, Crystal 2	62.6 J/K/mol
135.1 K, Crystal 2	62.8 J/K/mol
137.39 K, Crystal 2	63.4 J/K/mol
138 K, Crystal 2	64.3 J/K/mol
139.66 K, Crystal 2	64.3 J/K/mol
141.91 K, Crystal 2	65 J/K/mol
143 K, Crystal 2	66 J/K/mol
144.13 K, Crystal 2	67.1 J/K/mol
146.35 K, Crystal 2	66.9 J/K/mol
148 K, Crystal 2	67.8 J/K/mol
148.54 K, Crystal 2	67.5 J/K/mol
150.73 K, Crystal 2	68.2 J/K/mol
152.89 K, Crystal 2	68.6 J/K/mol
153 K, Crystal 2	69.6 J/K/mol
155.03 K, Crystal 2	69.6 J/K/mol
157.16 K, Crystal 2	70.4 J/K/mol
158 K, Crystal 2	71.3 J/K/mol
159.28 K, Crystal 2	71.7 J/K/mol
161.38 K, Crystal 2	72.6 J/K/mol
163 K, Crystal 2	73.1 J/K/mol
163.47 K, Crystal 2	73 J/K/mol
165.54 K, Crystal 2	73.7 J/K/mol
167.59 K, Crystal 2	74.3 J/K/mol
168 K, Crystal 2	74.7 J/K/mol
169.63 K, Crystal 2	75.2 J/K/mol
171.66 K, Crystal 2	76 J/K/mol
173 K, Crystal 2	76.2 J/K/mol
173.68 K, Crystal 2	77 J/K/mol
175.7 K, Crystal 2	77.8 J/K/mol
177.67 K, Crystal 2	78.2 J/K/mol
178 K, Crystal 2	77.8 J/K/mol
179.65 K, Crystal 2	78.9 J/K/mol
181.61 K, Crystal 2	79.9 J/K/mol
183 K, Crystal 2	79.5 J/K/mol
183.57 K, Crystal 2	81.2 J/K/mol
185.51 K, Crystal 2	81.6 J/K/mol
187.45 K, Crystal 2	82.1 J/K/mol
188 K, Crystal 2	81.5 J/K/mol
189.37 K, Crystal 2	83 J/K/mol
191.29 K, Crystal 2	84 J/K/mol
193 K, Crystal 2	84 J/K/mol
193.19 K, Crystal 2	84 J/K/mol
195.09 K, Crystal 2	84.8 J/K/mol
196.97 K, Crystal 2	84.8 J/K/mol
198 K, Crystal 2	86.5 J/K/mol
198.84 K, Crystal 2	86.5 J/K/mol
200.68 K, Crystal 2	88.1 J/K/mol
202.52 K, Crystal 2	88.1 J/K/mol
203 K, Crystal 2	89.8 J/K/mol
204.36 K, Crystal 2	90.6 J/K/mol
206.19 K, Crystal 2	92.3 J/K/mol
208 K, Crystal 2	94 J/K/mol
208.02 K, Crystal 2	93.1 J/K/mol
209.84 K, Crystal 2	94.8 J/K/mol
211.66 K, Crystal 2	96.4 J/K/mol
213 K, Crystal 2	98.9 J/K/mol
213.46 K, Crystal 2	97.3 J/K/mol
215.26 K, Crystal 2	98.9 J/K/mol
217.05 K, Crystal 2	101 J/K/mol
218 K, Crystal 2	105 J/K/mol
218.84 K, Crystal 2	102 J/K/mol
220.61 K, Crystal 2	105 J/K/mol
222.38 K, Crystal 2	107 J/K/mol
223 K, Crystal 2	111 J/K/mol
224.14 K, Crystal 2	111 J/K/mol
225.88 K, Crystal 2	112 J/K/mol
227.6 K, Crystal 2	116 J/K/mol
228 K, Crystal 2	118 J/K/mol
229.29 K, Crystal 2	121 J/K/mol
230.95 K, Crystal 2	124 J/K/mol
232.59 K, Crystal 2	126 J/K/mol
233 K, Crystal 2	125 J/K/mol
234.22 K, Crystal 2	129 J/K/mol
235.85 K, Crystal 2	131 J/K/mol
237.47 K, Crystal 2	132 J/K/mol
238 K, Crystal 2	132 J/K/mol
239.08 K, Crystal 2	136 J/K/mol
240.67 K, Crystal 2	140 J/K/mol
242.24 K, Crystal 2	141 J/K/mol
243 K, Crystal 2	139 J/K/mol
243.78 K, Crystal 2	144 J/K/mol
245.31 K, Crystal 2	146 J/K/mol
246.85 K, Crystal 2	146 J/K/mol
248 K, Crystal 2	146 J/K/mol
248.39 K, Crystal 2	147 J/K/mol
249.91 K, Crystal 2	148 J/K/mol
251.45 K, Crystal 2	149 J/K/mol
252.99 K, Crystal 2	150 J/K/mol
253 K, Crystal 2	151 J/K/mol
254.53 K, Crystal 2	150 J/K/mol
256.06 K, Crystal 2	150 J/K/mol
257.59 K, Crystal 2	151 J/K/mol
258 K, Crystal 2	156 J/K/mol
259.11 K, Crystal 2	153 J/K/mol
260.62 K, Crystal 2	155 J/K/mol
262.12 K, Crystal 2	156 J/K/mol
263 K, Crystal 2	160 J/K/mol
263.62 K, Crystal 2	158 J/K/mol
265.1 K, Crystal 2	158 J/K/mol
266.58 K, Crystal 2	160 J/K/mol
268 K, Crystal 2	161 J/K/mol
268.05 K, Crystal 2	160 J/K/mol
269.52 K, Crystal 2	161 J/K/mol
270.98 K, Crystal 2	161 J/K/mol
272.44 K, Crystal 2	161 J/K/mol
273 K, Crystal 2	162 J/K/mol
273.9 K, Crystal 2	162 J/K/mol
275.36 K, Crystal 2	163 J/K/mol
276.81 K, Crystal 2	163 J/K/mol
278 K, Crystal 2	162 J/K/mol
278.26 K, Crystal 2	164 J/K/mol
279.7 K, Crystal 2	164 J/K/mol
281.13 K, Crystal 2	165 J/K/mol
282.56 K, Crystal 2	165 J/K/mol
283 K, Crystal 2	162 J/K/mol
283.98 K, Crystal 2	165 J/K/mol
285.41 K, Crystal 2	165 J/K/mol
286.82 K, Crystal 2	165 J/K/mol
288 K, Crystal 2	164 J/K/mol
288.23 K, Crystal 2	165 J/K/mol
289.63 K, Crystal 2	166 J/K/mol
291.02 K, Crystal 2	166 J/K/mol
292.39 K, Crystal 2	167 J/K/mol
293 K, Crystal 2	168 J/K/mol
293.74 K, Crystal 2	169 J/K/mol
295.08 K, Crystal 2	170 J/K/mol
296.42 K, Crystal 2	171 J/K/mol
297.76 K, Crystal 2	174 J/K/mol
298.15 K, Crystal 2	179 J/K/mol
299.09 K, Crystal 2	177 J/K/mol
300.41 K, Crystal 2	180 J/K/mol
301.72 K, Crystal 2	185 J/K/mol
303 K, Crystal 2	192 J/K/mol and 196 J/K/mol
304.27 K, Crystal 2	201 J/K/mol
305 K, Crystal 2	206 J/K/mol
305.5 K, Crystal 2	213 J/K/mol
306.69 K, Crystal 2	231 J/K/mol
307.82 K, Crystal 2	260 J/K/mol
308.85 K, Crystal 2	301 J/K/mol
309.78 K, Crystal 2	355 J/K/mol
310.63 K, Crystal 2	390 J/K/mol
311.5 K, Crystal 1	329 J/K/mol
312.51 K, Crystal 1	280 J/K/mol
313.55 K, Crystal 1	303 J/K/mol
314.54 K, Crystal 1	330 J/K/mol
315.48 K, Crystal 1	365 J/K/mol
316.35 K, Crystal 1	410 J/K/mol
317.16 K, Crystal 1	466 J/K/mol
317.89 K, Crystal 1	538 J/K/mol
318.55 K, Crystal 1	629 J/K/mol
319.14 K, Crystal 1	738 J/K/mol
319.66 K, Crystal 1	865 J/K/mol
320.12 K, Crystal 1	1014 J/K/mol
320.52 K, Crystal 1	1189 J/K/mol
320.86 K, Crystal 1	1380 J/K/mol
321.16 K, Crystal 1	1596 J/K/mol
321.42 K, Crystal 1	1846 J/K/mol
321.65 K, Crystal 1	2037 J/K/mol
321.85 K, Crystal 1	2361 J/K/mol
322.03 K, Crystal 1	2644 J/K/mol
322.19 K, Crystal 1	2885 J/K/mol
322.33 K, Crystal 1	3118 J/K/mol
322.45 K, Crystal 1	3359 J/K/mol
322.56 K, Crystal 1	3742 J/K/mol
322.66 K, Crystal 1	4116 J/K/mol
322.75 K, Crystal 1	4448 J/K/mol
322.83 K, Crystal 1	4648 J/K/mol
322.9 K, Crystal 1	5022 J/K/mol
322.97 K, Crystal 1	5280 J/K/mol
323.03 K, Crystal 1	5513 J/K/mol
323.09 K, Crystal 1	5621 J/K/mol
323.15 K, Crystal 1	6011 J/K/mol
323.2 K, Crystal 1	6386 J/K/mol
323.24 K, Crystal 1	6585 J/K/mol
323.29 K, Crystal 1	6627 J/K/mol
323.33 K, Crystal 1	6677 J/K/mol
323.37 K, Liquid	6568 J/K/mol
323.42 K, Liquid	6236 J/K/mol
323.46 K, Liquid	5862 J/K/mol
323.5 K, Liquid	5604 J/K/mol
323.55 K, Liquid	5446 J/K/mol
323.59 K, Liquid	5080 J/K/mol
323.64 K, Liquid	4673 J/K/mol
323.69 K, Liquid	4199 J/K/mol
323.73 K, Liquid	3816 J/K/mol
323.78 K, Liquid	3517 J/K/mol
323.83 K, Liquid	2536 J/K/mol
324 K, Liquid	1014 J/K/mol
324.78 K, Liquid	242 J/K/mol
325 K, Liquid	244 J/K/mol
325.93 K, Liquid	245 J/K/mol
327.07 K, Liquid	245 J/K/mol
328.2 K, Liquid	246 J/K/mol
329.34 K, Liquid	246 J/K/mol
330 K, Liquid	247 J/K/mol
330.46 K, Liquid	247 J/K/mol
331.59 K, Liquid	247 J/K/mol
332.72 K, Liquid	247 J/K/mol
333.84 K, Liquid	247 J/K/mol
334.96 K, Liquid	248 J/K/mol
335 K, Liquid	249 J/K/mol
336.08 K, Liquid	250 J/K/mol
337.19 K, Liquid	251 J/K/mol
338.3 K, Liquid	253 J/K/mol
339.4 K, Liquid	254 J/K/mol
340 K, Liquid	254 J/K/mol
340.5 K, Liquid	255 J/K/mol
342.69 K, Liquid	259 J/K/mol
343.77 K, Liquid	262 J/K/mol
344.84 K, Liquid	265 J/K/mol
345 K, Liquid	266 J/K/mol
345.9 K, Liquid	269 J/K/mol
346.95 K, Liquid	273 J/K/mol
348.01 K, Liquid	278 J/K/mol
349.04 K, Liquid	284 J/K/mol
350 K, Liquid	288 J/K/mol
351.08 K, Liquid	294 J/K/mol
352.08 K, Liquid	300 J/K/mol
353 K, Liquid	308 J/K/mol
353.07 K, Liquid	309 J/K/mol
